Values of other authors, collected in patent US9446009B2, “Methods for treating conditions of the nail unit” (Hallux, Inc., priority 2004, dated 2016).
≈ marks a conversion by molar mass, not a printed value.

Experiments:
Details in all cases: in vitro
[1] = test system: Trichophyton rubrum
[2] = test system: Trichophyton mentagrophytes
[3] = test system: Trichophyton tonsurans
[4] = test system: Trichophyton verrucosum

MIC Ranges [1] | MIC Ranges [2] | MIC Ranges [3] | MIC Ranges [4] | Structure (SMILES)
<0.016 to 1 µg/mL | 0.125 to 0.25 µg/mL | ≦0.016-0.5 mcg/ml | 8 µg/mL (≈ 25.8 µM) | c1ccc(-c2ccc(C(c3ccccc3)n3ccnc3)cc2)cc1 (centres unmarked) [Bifonazole]
<0.03 to 8 µg/mL | 0.5 to 1 µg/mL | 0.125 to 1 µg/mL | 4 µg/mL (≈ 19.3 µM) | Cc1cc(C2CCCCC2)n(O)c(=O)c1 [Ciclopiroxolamine]
– | 16 to 32 µg/mL | 0.25 to 8 µg/mL | 16 µg/mL (≈ 52.2 µM) | OC(Cn1cncn1)(Cn1cncn1)c1ccc(F)cc1F [Fluconazole]
0.016 to 8 µg/mL | 0.016 to 0.125 µg/mL | 0.5 to 1 µg/mL | 1 µg/mL (≈ 2.83 µM) | COC1=CC(=O)C[C@@H](C)[C@]12Oc1c(Cl)c(OC)cc(OC)c1C2=O [Griseofulvin]
– | 0.008 to 4 µg/mL | 0.016 to 0.125 µg/mL | 4 µg/mL (≈ 7.53 µM) | CC(=O)N1CCN(c2ccc(OCC3COC(Cn4ccnc4)(c4ccc(Cl)cc4Cl)O3)cc2)CC1 (centres unmarked) [Ketoconazole]
0.008 to 4 µg/mL | 1 µg/mL (≈ 2.4 µM) | 0.016 to 0.25 µg/mL | 4 µg/mL (≈ 9.61 µM) | Clc1ccc(COC(Cn2ccnc2)c2ccc(Cl)cc2Cl)c(Cl)c1 (centres unmarked) [Miconazole]
≦0.0001-1 ^ mcg/ml | ≦S0.001 mcg/ml | ≦0.001-0.008 mcg/ml | 1 µg/mL (≈ 3.43 µM) | CN(C/C=C/C#CC(C)(C)C)Cc1cccc2ccccc12 [Terbinafine]
